Data on one molecule can be found in PMC10961359, “Targeting hexokinase 2 for oral cancer therapy: structure-based design and validation of lead compounds” (Frontiers in Pharmacology, 2024).

One assay has as its target T1, HK2 (Homo sapiens, UniProt P52789).
T1 construct: purchased Abcam ab211114
T1 sequence (P52789 1-917): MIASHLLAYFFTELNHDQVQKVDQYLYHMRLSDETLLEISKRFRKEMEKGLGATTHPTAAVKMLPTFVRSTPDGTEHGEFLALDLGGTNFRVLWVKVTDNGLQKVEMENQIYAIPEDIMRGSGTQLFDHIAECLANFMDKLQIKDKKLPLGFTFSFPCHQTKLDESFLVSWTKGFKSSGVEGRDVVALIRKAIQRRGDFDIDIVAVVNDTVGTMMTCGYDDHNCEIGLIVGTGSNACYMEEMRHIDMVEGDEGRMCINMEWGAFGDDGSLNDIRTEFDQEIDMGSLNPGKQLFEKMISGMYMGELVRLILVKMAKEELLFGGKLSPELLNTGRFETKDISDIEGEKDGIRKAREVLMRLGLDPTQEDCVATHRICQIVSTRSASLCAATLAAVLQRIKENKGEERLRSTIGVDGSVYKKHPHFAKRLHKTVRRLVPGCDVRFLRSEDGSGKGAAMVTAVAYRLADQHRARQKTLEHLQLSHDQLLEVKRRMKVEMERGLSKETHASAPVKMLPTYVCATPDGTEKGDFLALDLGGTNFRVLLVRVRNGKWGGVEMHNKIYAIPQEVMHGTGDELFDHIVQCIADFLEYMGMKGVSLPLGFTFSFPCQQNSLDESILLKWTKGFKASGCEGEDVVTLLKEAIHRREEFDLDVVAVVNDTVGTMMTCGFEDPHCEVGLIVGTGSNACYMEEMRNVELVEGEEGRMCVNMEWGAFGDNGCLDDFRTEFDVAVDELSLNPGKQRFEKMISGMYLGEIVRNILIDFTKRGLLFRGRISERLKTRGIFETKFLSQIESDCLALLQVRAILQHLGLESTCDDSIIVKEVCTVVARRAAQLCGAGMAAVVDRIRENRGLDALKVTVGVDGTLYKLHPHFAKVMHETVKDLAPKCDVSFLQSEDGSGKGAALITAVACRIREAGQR
Description: HK2 enzyme inhibition assay (Abcam kit ab211114). The assay is classed as biochemical. The method, then: The HK2 enzyme inhibition assay was performed using an HK2 inhibitor assay kit (Abcam, ab211114) according to the manufacturer’s instructions. Initially, 50 µM compound concentration was used to perform the enzyme activity inhibition studies, after which IC50 of the top leads were determined.
The hits derived from the docking study were sourced from either commercial suppliers or pre-existing compounds within our laboratory or were synthesized anew. The FaDu and Cal27 oral cancer cells were treated with the compounds for 72 h at concentrations of 3, 10, 30, and 100 μM. A post-treatment MTT assay was done to evaluate their antiproliferative activity. Table S2 represents the anti-proliferative and enzyme inhibitory activity of the compounds obtained as hits from the structure-based drug design strategy. […] Consequently, 50 μM of all the hit compounds were evaluated for their HK2 enzyme inhibitory activity. 50 μM of compounds were incubated with HK2 protein and the rate of reaction was assessed in kinetic mode (rate of conversion of NAD to NADH). The choice of 50 μM concentration was based primarily on MTT assays and GI50 calculation. The average GI50 values of the hit compounds against less sensitive FaDu cell line was approximately 50 μM. Considering this information, we reasoned that utilizing a concentration equivalent to the average GI50 would allow us to assess the maximum inhibitory effect of the compounds on HK2 enzyme activity. […] The same compounds have been previously reported by our team to have EGFR phosphorylation inhibitory potential and were coded as H2 (compound 14) and H10 (compound 11) ([Chakraborty et al., 2022]). […] Figures 1C,D show the lead compounds H2 and H10 at the active site of HK2 enzyme interacting via H-bonds with the amino acid residues.

The subject of a further assay is FaDu cells. Description: Cell cycle analysis (propidium iodide, flow cytometry), FaDu. Conditions: 10 and 30 μM, 72 h. Type of assay: cell-based. The method, then:
FaDu and Cal27 cells were treated with the test compounds (0.5 million cells per treatment) for 72 h, and harvested for cell cycle analysis (Cat# BD340242) and apoptosis analysis (Cat# BD556547) by flow cytometry according to manufacturer’s instructions.
To determine the effect of HK2 inhibition in the progression of the cell cycle, flow cytometric analysis of compound-treated FaDu and Cal27 cells was carried out 72 h post-treatment. Cell cycle analysis is carried out to quantify the DNA content and estimate the percentages of the cell population in different cell cycle phases via propidium iodide staining. […] To determine the apoptosis-inducing activity of HK2 inhibitors, 10 and 30 μM of compounds H2 and H10 treated FaDu and Cal27 cells were stained with annexin V conjugated with FITC, followed by propidium iodide staining.

Assay [1] deals with EGFR tyrosine kinase receptor phosphorylation. On the set-up: method as in Chakraborty et al., 2022. Particulars: 10 µM, 72 h of treatment; ref Chakraborty et al., 2022; cited from earlier work.

In the case of `COc1ccc(CNC(=O)c2nc3ccccc3s2)cc1O` [Compound 14, N-(3-hydroxy-4methoxybenzyl)benzo[d]thiazole-2-carboxamide], the inhibition at 50 µM at HK2 (read-out: % inhibition of HK2 enzyme activity at 50 µM) stood at 87%. Further, the 50% inhibitory concentration (IC50) on HK2 (read-out: IC50 against HK2) amounted to 2940 ± 200 nM. Also, in the assay on FaDu cells, the subG1 phase population entry is given as “increase in subG1 phase population”. Further, the “phosphorylation of the EGFR tyrosine kinase receptor” value in assay [1] was “inhibits the phosphorylation”.

Usually inhibition stands for how much of the control response was suppressed. Broadly, the IC50 is the concentration at which inhibition is half-maximal.
